Laboratory results as given in patent US9963480B2, “Nucleoside phosphoramidate compound and use thereof” (priority 2013, dated 2018).

Columns and labels:
Format in all cases: cell-based
[1] = tested on: J399EM (HCV genotype 2a) virus; assay: Antiviral activity assay in the cell-culture-derived infectious HCV (HCVcc) system; conditions: in vitro HCVcc system
Procedure: The compound according to the above example 1 was used in this experiment. The compound was formulated into a 10 mM mother liquid with DMSO, diluted to 500 nM by DMEM complete culture medium containing 0.5% of DMSO, followed by 4-fold dilution successively, and six concentrations were obtained. The positive control was diluted to 10 μM by DMEM complete culture medium containing 0.5% of DMSO, followed by 4-fold successively, and six concentrations were obtained.
(§1) Huh 7.5.1 cells, provided by Shanghai Institute of Materia Medica, Chinese Academy of Sciences.
J399EM (HCV genotype 2a) virus, i.e. a full length HCV mutant strain transfected with EGFP (enhanced green fluorescent protein) was used, which had the same infection capacity as the wild type JFH-1. The NS5A-EGFP fusion protein fluorescence was observed directly in infected cells by inserting EGFP coding sequence in the NS5A region. J399EM was provided by Shanghai Institute of Materia Medica, Chinese Academy of Sciences.
(§2) • 1) Huh 7.5.1 cells preparation: collecting the Huh7.5.1 cells in logarithmic phase, resuspending in DMEM complete culture medium, seeding into 96-well plates (7×10^3 cells/well), and incubating in a 37° C., 5% CO2 incubator for 24 h; • 2) virus infection: resuspending J399EM viruses in DMEM complete culture medium, adding the virus supernatant (MOI≈0.1) to the above 96-well plates, and washing with PBS after 8 hours of infection; • 3) drug treatment: adding various concentrations of the compounds to the Huh7.5.1 cells infected by J399EM viruses, with each concentration in duplicate; setting the control group with zero percent effect (ZPE) and the control group with hundred percent effect (HPE); replacing the compound with the DMEM complete culture medium containing 0.5% DMSO in ZPE group, and using the cells not infected with viruses in HPE group. • 4) cells incubation: incubating the 96-well plates in a 37° C., 5% CO2 incubator for 72 hr; • 5) anti-HCV activity detection: reading the relative fluorescence units (RFU) of each well by EnVision® Multi label Plate readers after incubation, and calculating the anti-HCV activity of the compounds using the obtained data according to the following formula: Inhibition %=(RFUZPE−RFUCPD)/(RFUZPE−RFUHPE)×100 • wherein RFUZPE represents the relative fluorescence units of the control group with zero percent effect and RFUCPD represents the relative fluorescence units of the corresponding compound group, and RFUHPE represents the relative fluorescence units of the control group with hundred percent effect. • 6) Cell viability detection: adding MTT solution to each well, incubating in a 37° C., 5% CO2 incubator for 4 hr, followed by addition of MTT dissolving solution, reading optical density (OD) of each well at 570 nm by the Multi label Plate readers after 6 hr, calculating the cytotoxicity of the compounds using the obtained data according to the following formula: Viability %=ODCPD/ODZPE×100 • wherein ODZPE represents the optical density of the control group with zero percent effect, and ODCPD represents the optical density of the corresponding compound; • 7) Data processing: processing the Inhibition %, Viability % by GraphPad Prism Software respectively, and obtaining the half maximal effective concentration (EC50) values and half maximal cytotoxic concentration (CC50) values of the compounds against the HVCcc GT2a viruses.

Huh 7.5.1 cells = assay: Cell viability detection (MTT) in the HCVcc system; conditions: in vitro HCVcc system
Procedure: as §1, §2

HCV 1b replicon = assay: Antiviral activity assay in HCV replicon system (Huh7 1b cells, luciferase reporter); conditions: Hepatitis C virus, Huh-7; Huh7 1b cells with HCV 1b replicon, Bright-Glo luciferase, 72 h; read-out: EC50
From the text: The cell line Huh7 1b, which was provided by WuXi AppTec Co., Ltd. in Shanghai, contained an HCV 1b replicon with a stable Luciferase (Luc) reporter. It was constructed by cloning HCV nonstructural protein gene, neo (G418 resistance) and luciferase reporter gene into the pBR vector through gene recombination technology. Then the vector carrying the HCV replicon was transfected into Huh7 cells, and the transfected Huh7 cells were screened by G418 resistance. The HCV replicon was stably replicated, and the related protein and luciferase were stably expressed in Huh7 cells. The cells model was used for in-vitro screen of anti-HCV compounds. The anti-HCV activity of the compounds was measured by detecting the level of luciferase expression. See Lohmann V, et al. 1999. Replication of subgenomic hepatitis C virus RNAs in a hepatoma cell line. Science. 285(5424):110-113.
The control drug used in this experimental example was the compound of Example 25 in WO 2008/121634 (PCT/US2008/058183), i.e. (S)-2-{[(2R,3R,4R,5R)-5-(2,4-dioxo-3,4-dihydro-2H-pyrimidin-1-yl)-4-fluoro-3-hydr oxy-4-methyl-tetrahydro-furan-2-ylmethoxy]-phenoxy-phosphorylamino}-propanoic acid isopropyl ester. This compound was prepared according to the method described in J. Org. chem, 2011, 76, 8311-8319, and identified by H-NMR and mass spectrometry.
• 2.1 compound preparation: adding each of the compounds listed in Table 2 to 96-well plates using a POD™ 810 Automation Platform (LabCyte Corporation, USA), with 10 μM of each of the compounds as a starting concentration and in duplicate; serially diluting each of the compounds in 3-fold fashion and formulating 10 concentrations, with the final concentration of DMSO being 0.5%; • 2.2 cells preparation: seeding the Huh71b cells into 96-well plates respectively with a volume of 125 μl and 8×10^3 cells/well, and incubating in a 37° C., 5% CO2 incubator for 72 h; • 2.3 detection of cell activity: adding 30 μl per cell of the CellTiter-Fluor™ Reagent, incubating in a 37° C., 5% CO2 incubator for 1 h, measuring the fluorescence signal values with a fluorometer, and using the obtained data for calculation of cytotoxicities of the compounds; • 2.4 Bright-Glo detection: adding 100 μl per well of the Bright-Glo™ Luciferase Substrate, using a chemiluminescence detection system EnVision™ (PerkinElmer, USA) to detect the fluorescence signal values within 5 minutes, and using the obtained data for calculation of potencies of the compounds. • 2.5 data processing: converting the obtained data to a percentage of cell viability (Viability %) using the following formula:
[formula] • CPD: fluorescence signal value of the well added with the compound • ZPE (Zero percent effect): fluorescence signal value of the control well with zero percent effect. • Processing the raw data to calculate a percentage of inhibition (Inhibition %) using the following formula:
[formula] • CPD: fluorescence signal value of the well added with the compound; • HPE (Hundred percent effect): fluorescence signal value of the control well with hundred percent effect; • ZPE (Zero percent effect): fluorescence signal value of the control well with zero percent effect.
The inhibition percentage was processed by the GraphPad Prism software to obtain the corresponding curves and EC50 values.

Compound	half maximal effective concentration (EC50) against the HCVcc GT2a viruses, in words [1]	half maximal cytotoxic concentration (CC50), in words (Huh 7.5.1 cells)	EC50 (HCV 1b replicon)
CC(C)OC(=O)[C@H](C)NP(=O)(OC[C@H]1O[C@@H](n2ccc(=O)[nH]c2=O)[C@](C)(F)[C@@H]1O)Oc1cccc(-c2ccccc2)c1 (stereo partly drawn) [Example 2, (2S)-2-((([1,1′-biphenyl]-3-yloxy)(((2R,3R,4R,5R)-5-(2,4-dioxo-3,4-dihydropyrimidin-1(2H)-yl)-4-fluoro-3-hydroxy-4-methyltetrahydrofuran-2-yl)methoxy)phosphoryl)amino)propanoic Acid Isopropyl Ester]	low	high	105 nM
COC(=O)Cc1coc2c(OP(=O)(N[C@@H](C)C(=O)OC(C)C)OC[C@H]3O[C@@H](n4ccc(=O)[nH]c4=O)[C@](C)(F)[C@@H]3O)cccc12 (stereo partly drawn) [Example 22, (2S)-2-(((3-methoxycarbonylmethyl-benzofuran-7-yloxy)(((2R,3R,4R,5R)-5-(2,4-dioxo-3,4-dihydropyrimidin-1(2H)-yl)-4-fluoro-3-hydroxy-4-methyltetrahydrofuran-2-yl)methoxy)phosphoryl)amino)propanoic Acid Isopropyl Ester]	–	–	314 nM
CC(C)OC(=O)[C@H](C)NP(=O)(OC[C@H]1O[C@@H](n2ccc(=O)[nH]c2=O)[C@](C)(F)[C@@H]1O)Oc1ccc2oc(-c3ccccc3)cc(=O)c2c1 (stereo partly drawn) [Example 23]	–	–	4490 nM
CC(C)OC(=O)[C@H](C)NP(=O)(OC[C@H]1O[C@@H](n2ccc(=O)[nH]c2=O)[C@](C)(F)[C@@H]1O)Oc1ccc(-c2ccc(Cl)cc2)cc1 (stereo partly drawn) [Example 27, (2S)-2-((((4′-chloro-[1,1′-biphenyl]-4-yl)oxy)(((2R,3R,4R,5R)-5-(2,4-dioxo-3,4-dihydropyrimidin-1(2H)-yl)-4-fluoro-3-hydroxy-4-methyltetrahydrofuran-2-yl)methoxy)phosphoryl)amino)propanoic Acid Isopropyl Ester]	–	–	98 nM
CC(C)OC(=O)[C@H](C)NP(=O)(OC[C@H]1O[C@@H](n2ccc(=O)[nH]c2=O)[C@](C)(F)[C@@H]1O)Oc1ccc(-c2cccc(F)c2)cc1 (stereo partly drawn) [Example 31, (2S)-2-((((3′-fluoro-[1,1′-biphenyl]-4-yl)oxy)(((2R,3R,4R,5R)-5-(2,4-dioxo-3,4-dihydropyrimidin-1(2H)-yl)-4-fluoro-3-hydroxy-4-methyltetrahydrofuran-2-yl)methoxy)phosphoryl)amino)propanoic Acid Isopropyl Ester]	–	–	102 nM
CC(C)OC(=O)[C@H](C)NP(=O)(OC[C@H]1O[C@@H](n2ccc(=O)[nH]c2=O)[C@](C)(F)[C@@H]1O)Oc1ccc(-c2cccc(Cl)c2)cc1 (stereo partly drawn) [Example 32, (2S)-2-((((3′-chloro-[1,1′-biphenyl]-4-yl)oxy)(((2R,3R,4R,5R)-5-(2,4-dioxo-3,4-dihydropyrimidin-1(2H)-yl)-4-fluoro-3-hydroxy-4-methyltetrahydrofuran-2-yl)methoxy)phosphoryl)amino)propanoic Acid Isopropyl Ester]	–	–	68 nM
Cc1cc2c(F)c(O[P@](=O)(N[C@@H](C)C(=O)OC(C)C)OC[C@H]3O[C@@H](n4ccc(=O)[nH]c4=O)[C@](C)(F)[C@@H]3O)ccc2n1C [Example 33, (2S)-2-(((S)-((4-fluoro-1,2-dimethyl-1H-indol-5-yl)oxy)(((2R,3R,4R,5R)-5-(2,4-dioxo-3,4-dihydropyrimidin-1(2H)-yl)-4-fluoro-3-hydroxy-4-methyltetrahydrofuran-2-yl)methoxy)phosphoryl)amino)propanoic Acid Isopropyl Ester]	–	–	33 nM
COc1ccc(-c2ccc(OP(=O)(N[C@@H](C)C(=O)OC(C)C)OC[C@H]3O[C@@H](n4ccc(=O)[nH]c4=O)[C@](C)(F)[C@@H]3O)cc2)cc1 (stereo partly drawn) [Example 36]	–	–	73 nM
CC(C)OC(=O)[C@H](C)NP(=O)(OC[C@H]1O[C@@H](n2ccc(=O)[nH]c2=O)[C@](C)(F)[C@@H]1O)Oc1ccc(-c2ccc(Cl)cc2F)cc1 (stereo partly drawn) [Example 39]	–	–	61 nM
Cc1ccc(-c2ccc(OP(=O)(N[C@@H](C)C(=O)OC(C)C)OC[C@H]3O[C@@H](n4ccc(=O)[nH]c4=O)[C@](C)(F)[C@@H]3O)cc2)cc1F (stereo partly drawn) [Example 40]	–	–	56 nM
Cc1cc(-c2ccc(OP(=O)(N[C@@H](C)C(=O)OC(C)C)OC[C@H]3O[C@@H](n4ccc(=O)[nH]c4=O)[C@](C)(F)[C@@H]3O)cc2)ccc1F (stereo partly drawn) [Example 41, (2S)-2-((((4′-fluoro-3′-methyl-[1,1′-biphenyl]-4-yl)oxy)(((2R,3R,4R,5R)-5-(2,4-dioxo-3,4-dihydropyrimidin-1(2H)-yl)-4-fluoro-3-hydroxy-4-methyltetrahydrofuran-2-yl)methoxy)phosphoryl)amino)propanoic Acid Isopropyl Ester]	–	–	50 nM
Cc1ccc(-c2ccc(OP(=O)(N[C@@H](C)C(=O)OC(C)C)OC[C@H]3O[C@@H](n4ccc(=O)[nH]c4=O)[C@](C)(F)[C@@H]3O)cc2)cc1 (stereo partly drawn) [Example 42, (2S)-2-((((4′-methyl-[1,1′-biphenyl]-4-yl)oxy)(((2R,3R,4R,5R)-5-(2,4-dioxo-3,4-dihydropyrimidin-1(2H)-yl)-4-fluoro-3-hydroxy-4-methyltetrahydrofuran-2-yl)methoxy)phosphoryl)amino)propanoic Acid Isopropyl Ester]	–	–	126 nM
Cc1cc2c(F)c(O[P@@](=O)(N[C@@H](C)C(=O)OC(C)C)OC[C@H]3O[C@@H](n4ccc(=O)[nH]c4=O)[C@](C)(F)[C@@H]3O)ccc2n1C [Example 43, (2S)-2-(((R)-((4-fluoro-1,2-dimethyl-1H-indol-5-yl)oxy)(((2R,3R,4R,5R)-5-(2,4-dioxo-3,4-dihydropyrimidin-1(2H)-yl)-4-fluoro-3-hydroxy-4-methyltetrahydrofuran-2-yl)methoxy)phosphoryl)amino)propanoic Acid Isopropyl Ester]	–	–	69 nM
